Reference: PMC6515519, “Structure–Activity Relationships of the Tetrapeptide Ac-His-Arg-(pI)DPhe-Tic-NH2 at the Mouse Melanocortin Receptors: Modification at the (pI)DPhe Position Leads to mMC3R Versus mMC4R Selective Ligands” (Molecules, 2019)
Non-standard residues stand in square brackets, D forms with d. Residues, ends and D or L forms follow the SMILES beside them. dPhe(4-tBu) = CC(C)(C)c1ccc(C[C@@H](N)C(=O)O)cc1; dPhe(3,4-Cl2) = N[C@H](Cc1ccc(Cl)c(Cl)c1)C(=O)O; dPhe(4-CF3) = N[C@H](Cc1ccc(C(F)(F)F)cc1)C(=O)O; dBip = N[C@H](Cc1ccc(-c2ccccc2)cc1)C(=O)O; dPhe(4-Br) = N[C@H](Cc1ccc(Br)cc1)C(=O)O; dPhe(4-F) = N[C@H](Cc1ccc(F)cc1)C(=O)O; Tic = O=C(O)[C@@H]1Cc2ccccc2CN1

Legend:
Format in all cases: cell-based
[1] = target: T1, mMC5R (Mus musculus, UniProt P41149); assay: β-galactosidase cAMP reporter assay, agonist pharmacology in HEK293 cells stably expressing mMC5R; conditions: for decreased agonist potency at the mMC5R compared to KNS2-22-4: ratio of EC50 to KNS2-22-4; for EC50: β-galactosidase cAMP, HEK293, mean ± SEM, apparent EC50 for partial agonists
T1 construct: expressed in transfected cells
T1 sequence (P41149 whole entry): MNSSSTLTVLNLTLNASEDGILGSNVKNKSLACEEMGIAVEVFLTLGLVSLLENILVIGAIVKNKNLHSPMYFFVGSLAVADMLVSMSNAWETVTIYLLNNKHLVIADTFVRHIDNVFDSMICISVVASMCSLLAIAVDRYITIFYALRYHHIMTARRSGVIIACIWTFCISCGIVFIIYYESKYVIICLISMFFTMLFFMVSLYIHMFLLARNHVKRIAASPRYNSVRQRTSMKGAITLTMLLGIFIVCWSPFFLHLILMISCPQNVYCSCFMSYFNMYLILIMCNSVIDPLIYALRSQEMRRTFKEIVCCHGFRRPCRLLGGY
Protocol: (§1) Peptides were synthesized manually with microwave irradiation using standard Fmoc synthesis techniques and purified using semi-preparative reverse-phase high-pressure liquid-chromatography (RP-HPLC). […] Agonist pharmacology was measured at the mMC3R, mMC4R, and mMC5R using a colorimetric β-galactosidase assay that measures cAMP production. Agonist pharmacology was assessed at the mMC1R using the Amplified Luminescent Proximity Homogenous Assay Screen (AlphaScreen, PerkinElmer), as previously described. The MC2R is only stimulated by ACTH, and was not examined in this study. For both assays, HEK293 cells stably expressing the mMCRs were used.
(§2) The peptide ligands were assessed for pharmacological activity at the mMC3R, mMC4R, and mMC5R using a β-galactosidase assay. Briefly, HEK293 cells stably expressing the MC3R, MC4R, or MC5R were plated into a 10 cm dish and grown to 40% confluency. The HEK293 cells were transfected with 4 µg of CRE/β-galactosidase using the calcium-phosphate method, as previously described. Cells (5000 to 15,000) were plated on collagen-treated Nunclon Delta Surface 96-well plates (Thermo Fisher Scientific) and incubated at 37 °C with 5% CO2. […] Plates were stored at −80 °C for up to two weeks.
(§3) Thawed plates were assessed for protein content and assayed for β-galactosidase activity. Relative protein concentration was determined by adding 10 µL of cell lysate to 200 µL of a 1:5 dilution of Bio Rad G250 protein dye in a 96-well plate.
(§4) The EC50 and pA2 values represent the mean of duplicate replicates performed in at least three independent experiments. The EC50 and pA2 values and their associated standard errors (SEM) were determined by fitting the data to a nonlinear least-squares analysis using the PRISM program (v4.0, GraphPad Inc., San Diego, CA, USA). The ligands were assayed as TFA salt and not corrected for peptide content.

[2] = target: T2, mMC3R (Mus musculus, UniProt P33033); assay: β-galactosidase cAMP reporter assay, agonist pharmacology in HEK293 cells stably expressing mMC3R; conditions: for decreased agonist potency at the mMC3R compared to KNS2-22-4: ratio of EC50 to KNS2-22-4; for EC50: β-galactosidase cAMP, HEK293, mean ± SEM, apparent EC50 for partial agonists; for agonist selectivity for the mMC3R over the mMC4R: mMC3R versus mMC4R agonist potency
T2 construct: expressed in transfected cells
T2 sequence (P33033 whole entry): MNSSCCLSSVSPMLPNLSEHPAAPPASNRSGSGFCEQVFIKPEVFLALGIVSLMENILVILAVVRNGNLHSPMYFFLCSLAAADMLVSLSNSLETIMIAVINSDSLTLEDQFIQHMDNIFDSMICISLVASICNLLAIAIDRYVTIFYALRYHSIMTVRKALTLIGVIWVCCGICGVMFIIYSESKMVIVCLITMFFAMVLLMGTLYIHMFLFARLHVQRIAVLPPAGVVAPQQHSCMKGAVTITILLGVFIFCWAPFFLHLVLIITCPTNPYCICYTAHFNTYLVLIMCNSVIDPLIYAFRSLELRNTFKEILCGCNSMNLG
Protocol: as §1, §2, §3, §4

[3] = target: T3, mMC4R (Mus musculus, UniProt P56450); assay: β-galactosidase cAMP reporter assay, agonist pharmacology in HEK293 cells stably expressing mMC4R; conditions: for mMC4R percent maximal stimulation relative to NDP-MSH (partial agonist): relative to maximal NDP-MSH signal
T3 construct: expressed in transfected cells
T3 sequence (P56450 whole entry): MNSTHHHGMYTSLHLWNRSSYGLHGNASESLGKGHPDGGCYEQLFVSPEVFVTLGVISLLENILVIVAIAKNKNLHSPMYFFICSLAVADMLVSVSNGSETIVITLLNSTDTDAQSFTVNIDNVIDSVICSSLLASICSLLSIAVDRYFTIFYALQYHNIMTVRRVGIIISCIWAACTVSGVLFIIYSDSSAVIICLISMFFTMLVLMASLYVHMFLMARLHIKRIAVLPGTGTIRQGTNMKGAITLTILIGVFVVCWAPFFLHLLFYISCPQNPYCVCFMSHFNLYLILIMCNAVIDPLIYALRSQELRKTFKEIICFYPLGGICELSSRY
Protocol: as §1, §2, §3, §4

[4] = target: T4, mMC1R (Mus musculus, UniProt Q01727); assay: AlphaScreen cAMP assay, agonist pharmacology in HEK293 cells stably expressing mMC1R; conditions: for EC50: AlphaScreen cAMP, HEK293, mean ± SEM, at least three experiments; for potency increase at the mMC1R relative to Ac-His-DPhe-Arg-Trp-NH2: compared with KNS2-153; for decreased agonist potency at the mMC1R compared to KNS2-22-4: ratio of EC50 to KNS2-22-4
T4 construct: expressed in transfected cells
T4 sequence (Q01727 whole entry): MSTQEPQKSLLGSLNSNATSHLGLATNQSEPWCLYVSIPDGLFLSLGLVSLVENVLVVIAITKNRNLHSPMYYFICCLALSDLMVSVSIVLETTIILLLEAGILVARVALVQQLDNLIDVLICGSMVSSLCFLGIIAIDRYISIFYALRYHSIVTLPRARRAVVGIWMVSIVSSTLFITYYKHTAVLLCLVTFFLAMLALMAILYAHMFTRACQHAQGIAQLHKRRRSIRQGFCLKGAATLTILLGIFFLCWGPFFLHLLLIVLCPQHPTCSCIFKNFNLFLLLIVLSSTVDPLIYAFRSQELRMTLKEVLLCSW
Protocol: as §1
Peptide ligands were dissolved in DMSO at stock concentrations of 10^−2 M. To assess the pharmacological activity of the tetrapeptides at the mMC1R, HEK293 cells stably expressing the mMC1R were stimulated with the ligands using the cAMP AlphaScreen assay (PerkinElmer) according to the manufacturer’s instruction and as previously described.
Cells were dislodged with Versene (Gibco) at 37 °C, and 10,000 cells/well were plated in a 384-well plate (Optiplate) with freshly made stimulation buffer (Hank’s Balanced Salt Solution (HBSS, 1×), 0.5 mM 3-isobutyl-1-methylxanthine (IBMX), 5 mM HEPES, and 0.1% bovine serum albumin (BSA), pH = 7.4) with 0.5 μg anti-cAMP acceptor beads per well.
Plates were incubated for an additional 2 h in the dark. Post incubation, the plates were read by an EnSpire plate reader (PerkinElmer, Waltham, MA, USA).
as §4

[5] = target: T3, mMC4R; assay: β-galactosidase cAMP reporter assay, antagonist Schild analysis with NDP-MSH as agonist; conditions: for mMC4R pA2: Schild analysis, agonist NDP-MSH, <5.5 = no antagonist potency at highest range (10,000, 5000, 1000, 500 nM)
Protocol: as §1, §2, §3, §4

Structure (SMILES) | decreased agonist potency at the mMC5R compared to KNS2-22-4 [1] | EC50 [1] | decreased agonist potency at the mMC3R compared to KNS2-22-4 [2] | EC50 [2] | EC50 [3] | mMC4R percent maximal stimulation relative to NDP-MSH (partial agonist) [3] | EC50 [4] | potency increase at the mMC1R relative to Ac-His-DPhe-Arg-Trp-NH2 [4] | agonist selectivity for the mMC3R over the mMC4R [2] | mMC4R pA2 [5] | mMC3R percent maximal stimulation relative to NDP-MSH (partial agonist) ([2]; relative to maximal NDP-MSH signal) | Kb [5] | decreased agonist potency at the mMC1R compared to KNS2-22-4 [4] | mMC4R agonist activity ([3]; full agonist = >90% of maximal NDP-MSH signal, inactive = <20% at 100 µM)
CC(=O)N[C@@H](Cc1c[nH]cn1)C(=O)N[C@@H](CCCNC(=N)N)C(=O)N[C@H](Cc1ccc(F)cc1)C(=O)N1Cc2ccccc2C[C@H]1C(N)=O [KNS2-22-2, Ac-His-Arg-(pF)DPhe-Tic-NH2] (Ac-HR[dPhe(4-F)][Tic]-NH2) | 14 fold | 0.07 ± 0.04 µM | 30 fold | 0.45 ± 0.07 µM | 0.56 µM | 70 % NDP | 0.0018 ± 0.0007 µM |  |  |  |  |  |  | 
CC(=O)N[C@@H](Cc1c[nH]cn1)C(=O)N[C@@H](CCCNC(=N)N)C(=O)N[C@H](Cc1ccc(Br)cc1)C(=O)N1Cc2ccccc2C[C@H]1C(N)=O [KNS2-22-3, Ac-His-Arg-(pBr)DPhe-Tic-NH2] (Ac-HR[dPhe(4-Br)][Tic]-NH2) |  | 0.0097 ± 0.0005 µM |  | 0.09 ± 0.02 µM | 0.29 µM | 55 % NDP | 0.0007 ± 0.0003 µM | ≥ 10 fold |  |  |  |  |  | 
CC(=O)N[C@@H](Cc1c[nH]cn1)C(=O)N[C@@H](CCCNC(=N)N)C(=O)N[C@H](Cc1ccc(-c2ccccc2)cc1)C(=O)N1Cc2ccccc2C[C@H]1C(N)=O [KNS2-23-1, Ac-His-Arg-DBip-Tic-NH2] (Ac-HR[dBip][Tic]-NH2) |  | 0.0076 ± 0.0007 µM |  | 0.014 ± 0.002 µM | 1.4 µM | 45 % NDP | 0.0006 ± 0.0001 µM | ≥ 10 fold | at least 100 fold | 5.9 ± 0.2 |  |  |  | 
CC(=O)N[C@@H](Cc1c[nH]cn1)C(=O)N[C@@H](CCCNC(=N)N)C(=O)N[C@H](Cc1ccc(C(C)(C)C)cc1)C(=O)N1Cc2ccccc2C[C@H]1C(N)=O [KNS2-23-3, Ac-His-Arg-(ptBu)DPhe-Tic-NH2] (Ac-HR[dPhe(4-tBu)][Tic]-NH2) |  | 0.0034 ± 0.0003 µM |  | 0.013 µM | > 100 µM | < 20 % NDP | 0.009 ± 0.003 µM |  | at least 100 fold | 6.8 | 85 % NDP | 0.158 µM | 13 fold | 
CC(=O)N[C@@H](Cc1c[nH]cn1)C(=O)N[C@@H](CCCNC(=N)N)C(=O)N[C@H](Cc1ccc(Cl)c(Cl)c1)C(=O)N1Cc2ccccc2C[C@H]1C(N)=O [KNS2-23-4, Ac-His-Arg-(3,4-diCl)DPhe-Tic-NH2] (Ac-HR[dPhe(3,4-Cl2)][Tic]-NH2) | 14 fold | 0.07 ± 0.007 µM | 30 fold | 0.4 ± 0.1 µM | > 100 µM |  | 0.005 ± 0.002 µM |  | at least 100 fold | 6.2 |  | 0.708 µM | 7 fold | did not result in stimulation
CC(=O)N[C@@H](Cc1c[nH]cn1)C(=O)N[C@@H](CCCNC(=N)N)C(=O)N[C@H](Cc1ccc(C(F)(F)F)cc1)C(=O)N1Cc2ccccc2C[C@H]1C(N)=O [KNS2-23-6, Ac-His-Arg-(pCF3)DPhe-Tic-NH2] (Ac-HR[dPhe(4-CF3)][Tic]-NH2) |  | 0.013 ± 0.004 µM | 7 fold | 0.09 ± 0.03 µM | 0.6 µM | 20 % NDP | 0.005 ± 0.001 µM |  |  | 6.5 |  | 0.316 µM | 7 fold | 
